Data set [1] concerns Rutgers tomato seedlings. Kind of data set: Transpiration rate of Rutgers tomato seedlings after foliar spray (LiCor 1600 porometer). Type of data set: in vivo. To be noted: for Transpiration rate as a percentage of control, Average of days 1, 2, and 3 after treatment: average of days 1-3. The protocol: (§1) Seedlings of Rutgers Tomato were sprayed with 4 ml water or treatment solution at the 3-4 leaf stage and held under well watered conditions in a greenhouse. Transpiration was measured daily for 3 days after treatment with a LiCor 1600 porometer. Transpiration readings were converted to percent of control to compensate for daily differences due to environmental factors like light intensity, humidity, and temperature.

Data set [2] deals with Rutgers Tomato. Kind of data set: Relative suppression effect of selective S-(+)-ABA formulations on Rutgers Tomato (regression). Type of data set: in vivo. To be noted: treatment at 100 ppm. The protocol: as §1
For data set [3] the following is noted: cited from earlier work.

This is an account of results in patent publication US20110065581A1, “Liquid Compositions Containing S-(+)-Abscisic Acid in Combination with Selected Lipophilic Agents and Methods of their Preparation” (priority 2007, published 2011).

Structures can show the parent of a compound that is named as a salt.

For `CC1=CC(=O)CC(C)(C)[C@@]1(O)/C=C/C(C)=C\C(=O)O` [ABA, ammonium salt of (S)-(+)-abscisic acid], the “Transpiration rate as a percentage of the transpiration rate of control plants, 1 day after treatment” value came to 91% in data set [1] (75 ppm spray, 4 ml, 3-4 leaf stage); 72% in data set [1] (250 ppm spray); 60% in data set [1] (750 ppm spray); 36% in data set [1] (2500 ppm spray). The “Transpiration rate as a percentage of the transpiration rate of control plants, 2 days after treatment” value in data set [1] (75 ppm spray) amounted to 94%; in data set [1] (250 ppm spray), 102%; in data set [1] (750 ppm spray) it was 83%; in data set [1] (2500 ppm spray) it was 35%. For the same compound, the “Transpiration rate as a percentage of the transpiration rate of control plants, 3 days after treatment” value worked out at 72% in data set [1] (75 ppm spray), 75% in data set [1] (250 ppm spray), 68% in data set [1] (750 ppm spray) and 43% in data set [1] (2500 ppm spray). In addition, the “Transpiration rate as a percentage of control, Average of days 1, 2, and 3 after treatment” value is reported as 86% in data set [1] (75 ppm spray), 83% in data set [1] (250 ppm spray), 70% in data set [1] (750 ppm spray) and 38% in data set [1] (2500 ppm spray). In addition, the “Effect of spraying on transpiration (in words)” value in data set [1] (Rutgers tomato seedlings, spray) is on record as “reduced transpiration in a dose dependant manner”. Moreover, the “Equivalent to s-ABA (ppm) ABA (ppm)” value in data set [2] (Rutgers Tomato, regression) was determined as 100 ppm. For the same compound, the “Log[ABA]” value in data set [2] (log of equivalent s-ABA ppm) worked out at 2.00. The “(Regression) Calculated Enhancement” value in data set [2] (relative to 100 ppm ABA) is recorded as 1.00.

Consider `CC1=CC(=O)CC(C)(C)[C@@]1(O)/C=C/C(C)=C\C(=O)O` [abscisic acid, S-(+)-abscisic acid], for which the “solubility in hard water (in words)” value in data set [3] (hard water, compared with pure water) is reported as “even less”. The “highest concentration that can be achieved in pure water” value in data set [3] (pure water at room temperature) is “about 3000 ppm”. Besides, in data set [3] (water at 24° C.), the water solubility was approximately 3 grams/1000 mL.
